The record followed here is publication PMC8892858 (ACS Omega, 2022).

Several values for one entry are separate records, joined by “and”; a condition that tells them apart may be missing. Equal values may be shown once. Entries after “also recorded” stand apart in the source; their conditions may differ. Where a name gives a salt, the structure may show the parent alone. Read-outs that look alike come from different tables or passages of the source. Where only a bound is given, the exact number is not on record here.

What is called EC50 is the concentration needed to bring the measured effect to its halfway point. Broadly, the IC50 is the midpoint of a concentration-inhibition curve.

One data set can be described thus: in vitro. The following applies: human.
For data set [1], the system named is rRVFVΔNSs::Katushka. As to the kind of experiment: microbe, parasite or virus in culture. It counts as cell-based, Rift Valley fever virus. To be noted: for IC50: read-out: IC50, dose-response curves of inhibition of RVFV infection (Figure 5A).
Data set [2] relates to A549 cells. It counts as cell-based, Human.
The subject of data set [3] is rRVFVΔNSs::Katushka. It counts as cell-based, Rift Valley fever virus.
For data set [4], the system named is A549 cells.
Data set [5] deals with rRVFVΔNSs::Katushka. The data set is classed as cell-based, Rift Valley fever virus. The source holds these as a separate data set.
Where [6] appears, read: Rift Valley fever virus, A549, 16 h, read-out: EC50 value.
[7] abbreviates: Rift Valley fever virus, A549, 16 h.

As to `c1ccc(-c2cccc(OCCCCN3CCNCC3)c2)cc1` [Compound 13a, 1-(4-(Biphenyl-3-yloxy)butyl)piperazine·2HCl], in “in vitro”, the CC50 worked out at 145 ± 5.5 µM. In addition, the Selectivity index in the data set with rRVFVΔNSs::Katushka [1] was 10 and 10.4. Moreover, the concentration giving a half-maximal response (EC50) with rRVFVΔNSs::Katushka [1] (setting [6]) is 13.8 ± 5.3 µM. In the data set on rRVFVΔNSs::Katushka [1] (setting [7]), the IC50 came to 13.8 µM. Moreover, in the data set with A549 cells [2], the “DiBAC4(3) fluorescence intensity (membrane potential)” value is given as “increased DiBAC4(3) fluorescence intensity (depolarization)”. In addition, the “antiviral potency by time of addition” value in the data set on rRVFVΔNSs::Katushka [3] is given as “active at early stages of the viral replication cycle, most likely during or just after virus entry; also recorded: progressively lost its potency when added at late stages of the infection cycle”.

Turning to `CN(C)c1cccc(-c2ccc(OCCCCN3CCNCC3)cc2)c1` [Compound 13h, N,N-Dimethyl-4′-(4-(piperazin-1-yl)butoxy)biphenyl-3-amine·3HCl], the CC50 in the data set “in vitro” is 82.5 ± 15.2 µM. Besides, the Selectivity index with rRVFVΔNSs::Katushka [1] amounted to 5.3. The EC50 in the data set on rRVFVΔNSs::Katushka [1] (setting [6]) was determined as 15.5 ± 4.7 µM. The CC50 value result with A549 cells [4] is “high toxicity”.

In turn, `CC(C)c1ccc(-c2ccc(OCCCCN3CCNCC3)cc2)cc1` [Compound 13i, 1-(4-(4′-Isopropylbiphenyl-4-yloxy)butyl)piperazine·2HCl] gave a CC50 in “in vitro” of 23.5 ± 0.1 µM. In the data set with rRVFVΔNSs::Katushka [1], this compound returned a Selectivity index of 5.1. Also, the EC50 with rRVFVΔNSs::Katushka [1] (setting [6]) turned out to be 4.6 ± 0.3 µM.

As to `c1cc(C23CC4CC(CC(C4)C2)C3)ccc1OCCCCN1CCNCC1` [Compound 13m, 1-(4-(4-Adamantylphenoxy)butyl)piperazine·2HCl], in the data set “in vitro”, the CC50 is 13.1 µM. The Selectivity index in the data set on rRVFVΔNSs::Katushka [1] is reported as 2.4. The EC50 in the data set with rRVFVΔNSs::Katushka [1] (setting [6]) is 5.4 ± 1.2 µM. Also, the CC50 value result in the data set with A549 cells [4] was “Extreme toxicity”.

In the data set “in vitro”, `NCCCOc1ccc(-c2ccccc2)cc1` [Compound 5c, 3-(Biphenyl-4-yloxy)propan-1-amine] returned a CC50 of 147 ± 4 µM. The compound further gave a Selectivity index in the data set with rRVFVΔNSs::Katushka [1] of 3.8. The EC50 in the data set on rRVFVΔNSs::Katushka [1] (setting [6]) was 37.8 ± 6.7 µM.

As for `c1ccc(-c2ccc(OCCCCCN3CCNCC3)cc2)cc1` [Compound 9b, 1-(5-(Biphenyl-4-yloxy)pentyl)piperazine], the CC50 in the data set “in vitro” is 44.2 ± 16.6 µM. Further, in the data set on rRVFVΔNSs::Katushka [1] (setting [6]), the EC50 is 11.7 ± 1.8 µM.

As for `c1ccc(-c2ccc(OCCN3CCCCC3)cc2)cc1` [Compound 4d, 1-(2-(Biphenyl-4-yloxy)ethyl)piperidine], in “in vitro”, the CC50 was > 300 µM. Besides, the EC50 with rRVFVΔNSs::Katushka [1] (setting [6]) was > 100 µM.

As to `NCCCCCCOc1ccc(-c2ccccc2)cc1` [Compound 5a, 6-(Biphenyl-4-yloxy)hexan-1-amine·HCl], in “in vitro”, the CC50 came to 44.6 ± 0.3 µM. The same compound had a Selectivity index in the data set on rRVFVΔNSs::Katushka [1] of 3.6. For the same compound, the 50% effective concentration (EC50) with rRVFVΔNSs::Katushka [1] (setting [6]) was 12.1 ± 2.1 µM.

In turn, `c1ccc(Cc2ccc(OCCCCN3CCNCC3)cc2)cc1` [Compound 13c, 1-(4-(4-Benzylphenoxy)butyl)piperazine·2HCl] yielded a CC50 in “in vitro” of 140.3 ± 0.8 µM. In addition, the Selectivity index in the data set with rRVFVΔNSs::Katushka [1] is recorded as 9.1. In the data set with rRVFVΔNSs::Katushka [1] (setting [6]), the EC50 amounted to 15.4 ± 4.7 µM.

With `CC(=O)c1cccc(-c2ccc(OCCCCN3CCNCC3)cc2)c1` [Compound 13g, 1-(4′-(4-(Piperazin-1-yl)butoxy)biphenyl-3-yl)ethanone·2HCl], the CC50 in “in vitro” was > 300 µM. In addition, the EC50 in the data set with rRVFVΔNSs::Katushka [1] (setting [6]) was 41.9 ± 27.3 µM.

For `c1ccc(-c2ccc(OCCN3CCOCC3)cc2)cc1` [Compound 4e, 4-(2-(Biphenyl-4-yloxy)ethyl)morpholine], the CC50 in “in vitro” was > 300 µM. Further, the EC50 in the data set with rRVFVΔNSs::Katushka [1] (setting [6]) is > 100 µM.

For `c1ccc(-c2ccc(OCCCCN3CCN(c4ccccc4)CC3)cc2)cc1` [Compound 11, 1-(4-(Biphenyl-4-yloxy)butyl)-4-phenylpiperazine], in “in vitro”, the CC50 was > 300 µM. In addition, the EC50 value entry in the data set on rRVFVΔNSs::Katushka [1] is given as “the antiviral activity was completely eliminated; also recorded: ND (no inhibition)”. Further, in the data set on rRVFVΔNSs::Katushka [5], the “inhibition of RVFV RNA expression (qRT-PCR)” value is “did not show any inhibition”.

Regarding `CC(C)c1cccc(-c2ccc(OCCCCN3CCNCC3)cc2)c1` [Compound 13j, 1-(4-(3′-Isopropylbiphenyl-4-yloxy)butyl)piperazine·2HCl], the CC50 in “in vitro” was 25.5 ± 8.9 µM. The same compound registered a Selectivity index with rRVFVΔNSs::Katushka [1] of 5.4. Besides, the EC50 in the data set on rRVFVΔNSs::Katushka [1] (setting [6]) was found to be 4.7 ± 0.7 µM.

In the case of “1-(4-(Benzhydryloxy)butyl)-4-phenylpiperazine [Compound 16]”, in the data set on rRVFVΔNSs::Katushka [1], the EC50 value result was “reduced the antiviral activity significantly”. For the same compound, in the data set on rRVFVΔNSs::Katushka [1] (read-out: EC50 value), the EC50 was > 100 µM. The CC50 with A549 cells [4] is > 300 µM.

In turn, `c1ccc(Cc2cccc(OCCCCN3CCNCC3)c2)cc1` [Compound 13d, 1-(4-(3-Benzylphenoxy)butyl)piperazine·2HCl] showed a CC50 in the data set “in vitro” of 134.2 ± 0.9 µM. Besides, the Selectivity index with rRVFVΔNSs::Katushka [1] came out at 5.8. Further, the EC50 with rRVFVΔNSs::Katushka [1] (setting [6]) worked out at 22.9 ± 5.2 µM.

Consider `NCCOc1ccc(-c2ccccc2)cc1` [Compound 5b, 2-(Biphenyl-4-yloxy)ethanamine·HCl], for which, in “in vitro”, the CC50 was > 300 µM. Besides, the Selectivity index with rRVFVΔNSs::Katushka [1] was determined as 8.1. For the same compound, in the data set with rRVFVΔNSs::Katushka [1] (setting [6]), the EC50 is 37.3 ± 0.5 µM.

Take `CN1CCN(CCCCOc2ccc(-c3ccccc3)cc2)CC1` [Compound 8c, 1-(4-(Biphenyl-4-yloxy)butyl)-4-methylpiperazine]: the CC50 in “in vitro” was found to be 136.2 ± 1.2 µM. The compound further registered a Selectivity index in the data set on rRVFVΔNSs::Katushka [1] of 2.2. Besides, the EC50 in the data set on rRVFVΔNSs::Katushka [1] (setting [6]) stood at 61.7 ± 17.6 µM. Further, the “inhibition of RVFV RNA expression (qRT-PCR)” value in the data set on rRVFVΔNSs::Katushka [5] is “unable to inhibit the viral RNA expressions”.

In “in vitro”, `NCCCNCCOc1ccc(-c2ccccc2)cc1` [Compound 1, N1-(2-(Biphenyl-4-yloxy)ethyl)propane-1,3-diamine·2HCl] gave a CC50 of 86 ± 9 µM. The compound also returned a Selectivity index in the data set on rRVFVΔNSs::Katushka [1] of 7.1. Besides, in the data set on rRVFVΔNSs::Katushka [1] (setting [6]), the EC50 was determined as 12 ± 1.3 µM.

Take `c1ccc(-c2ccc(OCCN3CCNCC3)cc2)cc1` [Compound 5f, 1-(2-(Biphenyl-4-yloxy)ethyl)piperazine]: the CC50 in the data set “in vitro” came to 165 ± 22.9 µM. Further, the Selectivity index in the data set with rRVFVΔNSs::Katushka [1] worked out at 4.2. Besides, the EC50 in the data set on rRVFVΔNSs::Katushka [1] (setting [6]) stood at 38.7 ± 11.6 µM.

On to `c1cc(C2CCCCC2)ccc1OCCCCN1CCNCC1` [Compound 13l, 1-(4-(4-Cyclohexylphenoxy)butyl)piperazine·2HCl], for which, in the data set “in vitro”, the CC50 came out at 49.9 ± 10.1 µM. For the same compound, the Selectivity index in the data set on rRVFVΔNSs::Katushka [1] was determined as 5.6. In addition, in the data set with rRVFVΔNSs::Katushka [1] (setting [6]), the EC50 came out at 8.8 ± 0.5 µM.

The compound `c1ccc(-c2ccc(OCCCCN3CCNCC3)cc2)cc1` [Compound 9a, 1-(4-(Biphenyl-4-yloxy)butyl)piperazine] displayed a CC50 in the data set “in vitro” of 74.8 ± 1.2 µM. The same compound showed a Selectivity index with rRVFVΔNSs::Katushka [1] of 5.8. Further, the EC50 in the data set on rRVFVΔNSs::Katushka [1] (setting [6]) was found to be 12.8 ± 0.2 µM.

For the compound `c1ccc(-c2ccccc2OCCCCN2CCNCC2)cc1` [Compound 13b, 1-(4-(Biphenyl-2-yloxy)butyl)piperazine·2HCl], the CC50 in the data set “in vitro” is > 300 µM. Further, the Selectivity index in the data set on rRVFVΔNSs::Katushka [1] is given as > 4.7. In addition, the EC50 in the data set on rRVFVΔNSs::Katushka [1] (setting [6]) stood at 63.5 ± 11.1 µM.

In the case of `C=C[C@H]1C[N@@]2CC[C@H]1C[C@@H]2[C@@H](O)c1ccnc2ccc(OC)cc12` [quinidine, reference compound], the EC50 in the data set on rRVFVΔNSs::Katushka [1] (Rift Valley fever virus, A549, 16 h, read-out: EC50 value, inhibition of RVFV infection (dose-response before membrane potential assay)) is 146 µM. In the data set with rRVFVΔNSs::Katushka [1] (setting [7]), the IC50 was found to be 164 µM. Besides, the “DiBAC4(3) fluorescence intensity (membrane potential)” value with A549 cells [2] was “increased DiBAC4(3) fluorescence intensity (depolarization)”.

`c1ccc(Cc2ccccc2OCCCCN2CCNCC2)cc1` [Compound 13e, 1-(4-(2-Benzylphenoxy)butyl)piperazine·2HCl] returned a CC50 in the data set “in vitro” of 148.4 ± 1.3 µM. This compound also registered a Selectivity index with rRVFVΔNSs::Katushka [1] of 4.7. Further, the EC50 in the data set on rRVFVΔNSs::Katushka [1] (setting [6]) turned out to be 31.2 ± 15.8 µM.

Take `c1ccc(OCCCCN2CCNCC2)cc1` [Compound 13f, 1-(4-Phenoxybutyl)piperazine·2HCl]: the CC50 in the data set “in vitro” was > 300 µM. Besides, in the data set on rRVFVΔNSs::Katushka [1], the EC50 value result is recorded as “completely removed the antiviral activity; also recorded: ND (no inhibition)”.

In turn, `c1ccc(-c2ccc(OCCCN3CCNCC3)cc2)cc1` [Compound 5g, 1-(3-(Biphenyl-4-yloxy)propyl)piperazine] came in with a CC50 in “in vitro” of 203 ± 53.5 µM. Also, in the data set with rRVFVΔNSs::Katushka [1], the Selectivity index is < 2. Further, the EC50 with rRVFVΔNSs::Katushka [1] (setting [6]) is > 100 µM.
